Assay results published in PubChem BioAssay AID1918994 (Molecular Pharmacology Branch, DTP, NCI, 2023).

System: 292921-168-R-J2-PDC complex spheroid growth
Assay: Anticancer human tumor 292921-168-R-J2-PDC patient-derived pancreatic carcinoma cell line growth inhibition [AhR]
Details: for IC50: curve of first compound; for viability, T/C: stronger effect = lower value
How it was run: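 Agents were dosed in half-log steps down from roughly clinical Cmax, or from 10 microM where Cmax was unknown, alone and with AhR antagonists. Read-out: percent test/control growth of tumor spheroids containing HUVEC and MSC stromal cells.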
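Also: spheroids exposed to compounds for seven days after three days of growth.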

**Q.** What does the source list for `CC[C@@]1(O)C(=O)OCc2c1cc1n(c2=O)Cc2cc3c(CN(C)C)c(O)ccc3nc2-1` + Cc1ccccc1N=Nc1ccc(NC(=O)c2ccnn2C)c(C)c1?
**A.** IC50 (second compound 0.1 µM): 22.9 nM; IC50 (second compound 0.316 µM): 18.6 nM; IC50 (second compound 1 µM): 18.5 nM; IC50 (second compound 3.16 µM): 13.9 nM; IC50 (second compound 10 µM): 12.7 nM; viability, T/C (second compound 0.1 µM, first compound 0.000316 µM): 90.9%; viability, T/C (second compound 0.1 µM, first compound 0.001 µM): 90.8%; viability, T/C (second compound 0.1 µM, first compound 0.00316 µM): 82.5%; viability, T/C (second compound 0.1 µM, first compound 0.01 µM): 79.5%; viability, T/C (second compound 0.1 µM, first compound 0.0316 µM): 38.7%; viability, T/C (second compound 0.1 µM, first compound 0.1 µM): 16.8%; viability, T/C (second compound 0.316 µM, first compound 0.000316 µM): 82.9%; viability, T/C (second compound 0.316 µM, first compound 0.001 µM): 92.5%; viability, T/C (second compound 0.316 µM, first compound 0.00316 µM): 81.2%; viability, T/C (second compound 0.316 µM, first compound 0.01 µM): 66.2%; viability, T/C (second compound 0.316 µM, first compound 0.0316 µM): 36.2%; viability, T/C (second compound 0.316 µM, first compound 0.1 µM): 18.6%; viability, T/C (second compound 1 µM, first compound 0.000316 µM): 86.6%; viability, T/C (second compound 1 µM, first compound 0.001 µM): 88%; viability, T/C (second compound 1 µM, first compound 0.00316 µM): 76.9%; viability, T/C (second compound 1 µM, first compound 0.01 µM): 62.9%; viability, T/C (second compound 1 µM, first compound 0.0316 µM): 39.1%; viability, T/C (second compound 1 µM, first compound 0.1 µM): 15.6%; viability, T/C (second compound 3.16 µM, first compound 0.000316 µM): 76%; viability, T/C (second compound 3.16 µM, first compound 0.001 µM): 70.4%; viability, T/C (second compound 3.16 µM, first compound 0.00316 µM): 67.1%; viability, T/C (second compound 3.16 µM, first compound 0.01 µM): 58.2%; viability, T/C (second compound 3.16 µM, first compound 0.0316 µM): 32.8%; viability, T/C (second compound 3.16 µM, first compound 0.1 µM): 14.1%; viability, T/C (second compound 10 µM, first compound 0.000316 µM): 54.4%; viability, T/C (second compound 10 µM, first compound 0.001 µM): 61.1%; viability, T/C (second compound 10 µM, first compound 0.00316 µM): 52.6%; viability, T/C (second compound 10 µM, first compound 0.01 µM): 55.6%; viability, T/C (second compound 10 µM, first compound 0.0316 µM): 28.9%; viability, T/C (second compound 10 µM, first compound 0.1 µM): 16.2%

**Q.** With `CCc1c2c(nc3ccc(O)cc13)-c1cc3c(c(=O)n1C2)COC(=O)[C@]3(O)CC` + Cc1ccccc1N=Nc1ccc(NC(=O)c2ccnn2C)c(C)c1 as the molecule, how does the IC50 (second compound 0.1 µM) read?
**A.** 3.86 nM

**Q.** And the IC50 (second compound 0.316 µM)?
**A.** 3.56 nM

**Q.** What about the IC50 (second compound 1 µM) of the same molecule?
**A.** 3.34 nM

**Q.** And the IC50 (second compound 3.16 µM)?
**A.** 1.37 nM

**Q.** What about the IC50 (second compound 10 µM) of the same molecule?
**A.** < 0.949 nM

**Q.** And the viability, T/C (second compound 0.1 µM, first compound 0.000949 µM)?
**A.** 78.2%

**Q.** What about the viability, T/C (second compound 0.1 µM, first compound 0.003 µM) of the same molecule?
**A.** 58.5%

**Q.** What about the viability, T/C (second compound 0.1 µM, first compound 0.00949 µM) of the same molecule?
**A.** 20%

**Q.** What about the viability, T/C (second compound 0.1 µM, first compound 0.03 µM) of the same molecule?
**A.** 7.99%

**Q.** What about the viability, T/C (second compound 0.1 µM, first compound 0.0949 µM) of the same molecule?
**A.** 5.02%

**Q.** What about the viability, T/C (second compound 0.1 µM, first compound 0.3 µM) of the same molecule?
**A.** 2.76%

**Q.** And the viability, T/C (second compound 0.316 µM, first compound 0.000949 µM)?
**A.** 68.3%

**Q.** What about the viability, T/C (second compound 0.316 µM, first compound 0.003 µM) of the same molecule?
**A.** 55.9%

**Q.** And the viability, T/C (second compound 0.316 µM, first compound 0.00949 µM)?
**A.** 17.3%

**Q.** And the viability, T/C (second compound 0.316 µM, first compound 0.03 µM)?
**A.** 8.17%

**Q.** What about the viability, T/C (second compound 0.316 µM, first compound 0.0949 µM) of the same molecule?
**A.** 3.89%

**Q.** What about the viability, T/C (second compound 0.316 µM, first compound 0.3 µM) of the same molecule?
**A.** 3.58%

**Q.** And the viability, T/C (second compound 1 µM, first compound 0.000949 µM)?
**A.** 68.6%

**Q.** And the viability, T/C (second compound 1 µM, first compound 0.003 µM)?
**A.** 53.6%

**Q.** What about the viability, T/C (second compound 1 µM, first compound 0.00949 µM) of the same molecule?
**A.** 18.9%

**Q.** And the viability, T/C (second compound 1 µM, first compound 0.03 µM)?
**A.** 9.76%

**Q.** And the viability, T/C (second compound 1 µM, first compound 0.0949 µM)?
**A.** 5.35%

**Q.** And the viability, T/C (second compound 1 µM, first compound 0.3 µM)?
**A.** 2.94%

**Q.** What about the viability, T/C (second compound 3.16 µM, first compound 0.000949 µM) of the same molecule?
**A.** 54.4%

**Q.** What about the viability, T/C (second compound 3.16 µM, first compound 0.003 µM) of the same molecule?
**A.** 40.6%

**Q.** And the viability, T/C (second compound 3.16 µM, first compound 0.00949 µM)?
**A.** 16%

**Q.** What about the viability, T/C (second compound 3.16 µM, first compound 0.03 µM) of the same molecule?
**A.** 9.67%

**Q.** What about the viability, T/C (second compound 3.16 µM, first compound 0.0949 µM) of the same molecule?
**A.** 5.09%

**Q.** What about the viability, T/C (second compound 3.16 µM, first compound 0.3 µM) of the same molecule?
**A.** 3.01%

**Q.** What about the viability, T/C (second compound 10 µM, first compound 0.000949 µM) of the same molecule?
**A.** 47.4%

**Q.** What about the viability, T/C (second compound 10 µM, first compound 0.003 µM) of the same molecule?
**A.** 40.9%

**Q.** What about the viability, T/C (second compound 10 µM, first compound 0.00949 µM) of the same molecule?
**A.** 17.5%

**Q.** And the viability, T/C (second compound 10 µM, first compound 0.03 µM)?
**A.** 10.8%

**Q.** What about the viability, T/C (second compound 10 µM, first compound 0.0949 µM) of the same molecule?
**A.** 5.21%

**Q.** What about the viability, T/C (second compound 10 µM, first compound 0.3 µM) of the same molecule?
**A.** 3.01%
